Test results: publication PMC8815882, “Screening the pandemic response box identified benzimidazole carbamates, Olorofim and ravuconazole as promising drug candidates for the treatment of eumycetoma” (PLoS Neglected Tropical Diseases, 2022)
Like-named read-outs stand apart in the source and are kept apart here.

Test system: M. mycetomatis genome strain MM55
Experiment: CLSI M38-A2 based in vitro susceptibility screening (XTT or resazurin), growth at fixed concentration
Format: cell-based, Madurella mycetomatis
Conditions: Madurella mycetomatis; for Percent fungal survival at 100 µM: read-out: Percentage survival at 100um, 100 uM A (second replicate column)
[1] = mean of three replicates, read-out: Percentage survival at 25um, 25 uM mean
[2] = replicate A, read-out: Percentage survival at 25um, 25 um A
[3] = replicate B, read-out: Percentage survival at 25um, 25 uM B
[4] = replicate C, read-out: Percentage survival at 25um, 25 uM C
[5] = first replicate column, read-out: Percentage survival at 100um, 100 uM A
[6] = mean of three replicates, read-out: Percentage survival at 100um, 100 uM mean
[7] = second replicate column, read-out: Percentage survival at 100um, 100 uM A
[8] = third replicate column, read-out: Percentage survival at 100um, 100 uM A
[9] = mean of replicates, MM55, read-out: Percentage survival at 25um, 25 uM mean
[10] = replicate A, MM55, read-out: Percentage survival at 25um, 25 um A
[11] = replicate B, MM55, read-out: Percentage survival at 25um, 25 uM B
[12] = replicate C, MM55, read-out: Percentage survival at 25um, 25 uM C
[13] = mean of replicates, MM55, read-out: Percentage survival at 100um, 100 uM mean
[14] = replicate 1, MM55, read-out: Percentage survival at 100um, 100 uM A
[15] = replicate 2, MM55, read-out: Percentage survival at 100um, 100 uM A
[16] = replicate 3, MM55, read-out: Percentage survival at 100um, 100 uM A

Cc1ccc(C)c(OCCCCCCN2C[C@H](O)[C@@H](O)[C@H](O)[C@H]2CO)c1 [MMV1634401]
activity at 25 µM [1]: 82.7%
activity at 25 µM [2]: 64.4%
activity at 25 µM [3]: 87.6%
activity at 25 µM [4]: 96.1%
activity at 100 µM [5]: 83.4%
activity at 100 µM [6]: 82.2%
activity at 100 µM [7]: 82.8%
activity at 100 µM [8]: 80.5%

CS(=O)(=O)c1ccc(Oc2ccc(Cl)cc2)cc1 [MMV1634404]
activity at 25 µM [1]: 85.3%
activity at 25 µM [2]: 90%
activity at 25 µM [3]: 98%
activity at 25 µM [4]: 68%
activity at 100 µM [6]: 50.7%
activity at 100 µM (replicate 1, read-out: Percentage survival at 100um, 100 uM A (first replicate column)): 44.2%
Percent fungal survival at 100 µM (replicate 2): 49%
activity at 100 µM (replicate 3, read-out: Percentage survival at 100um, 100 uM A (third replicate column)): 59%

CCc1cc(CCCOc2c(C)cc(-c3noc(C(F)(F)F)n3)cc2C)on1 [MMV1634556]
activity at 25 µM [1]: 87%
activity at 25 µM [2]: 70.7%
activity at 25 µM [3]: 105%
activity at 25 µM [4]: 85.5%
activity at 100 µM [5]: 76.5%
activity at 100 µM [6]: 73%
activity at 100 µM [7]: 74.6%
activity at 100 µM [8]: 68%

COc1cc(C2C3=C(CC(C)(C)CC3=O)Nc3ccccc3N2C(C)=O)ccc1OCc1ccccc1 (stereo not shown) [MMV1634557]
activity at 25 µM (mean, read-out: Percentage survival at 25um, 25 uM mean): 82.1%
activity at 25 µM [2]: 90.5%
activity at 25 µM [3]: 79.1%
activity at 25 µM [4]: 76.6%
activity at 100 µM (mean, read-out: Percentage survival at 100um, 100 uM mean): 85.5%
activity at 100 µM (replicate (first column), read-out: Percentage survival at 100um, 100 uM A): 92.5%
activity at 100 µM (replicate (second column), read-out: Percentage survival at 100um, 100 uM A): 79.5%
activity at 100 µM (replicate (third column), read-out: Percentage survival at 100um, 100 uM A): 84.5%

Nc1nc(=O)c(Br)c(-c2cccc(Cl)c2)[nH]1 [MMV1645152]
activity at 25 µM [1]: 84.5%
activity at 25 µM [2]: 79.7%
activity at 25 µM [3]: 91.3%
activity at 25 µM [4]: 82.6%
activity at 100 µM [5]: 87.5%
activity at 100 µM [6]: 75.8%
activity at 100 µM [7]: 77.5%
activity at 100 µM [8]: 62.2%

CCc1nc2ccccn2c1C(=O)NCc1ccccc1 [MMV1663457]
activity at 25 µM (mean of three, M. mycetomatis MM55, read-out: Percentage survival at 25um, 25 uM mean): 64.2%
activity at 25 µM (replicate A, M. mycetomatis MM55, read-out: Percentage survival at 25um, 25 um A): 58%
activity at 25 µM (replicate B, M. mycetomatis MM55, read-out: Percentage survival at 25um, 25 uM B): 69.7%
activity at 25 µM (replicate C, M. mycetomatis MM55, read-out: Percentage survival at 25um, 25 uM C): 64.8%
activity at 100 µM (mean of three, M. mycetomatis MM55, read-out: Percentage survival at 100um, 100 uM mean): 64.3%
activity at 100 µM (replicate 1, M. mycetomatis MM55, read-out: Percentage survival at 100um, 100 uM A (first replicate column)): 52.2%
Percent fungal survival at 100 µM (replicate 2, M. mycetomatis MM55): 54%
activity at 100 µM (replicate 3, M. mycetomatis MM55, read-out: Percentage survival at 100um, 100 uM A (third replicate column)): 86.6%

O=C(NCc1ccc(F)cc1)c1c(O)c2ncccc2[nH]c1=O [MMV1782097]
activity at 25 µM [9]: 95.5%
activity at 25 µM [10]: 97.7%
activity at 25 µM [11]: 100%
activity at 25 µM [12]: 88.2%
activity at 100 µM [13]: 82.8%
activity at 100 µM [14]: 86.6%
activity at 100 µM [15]: 79.1%
activity at 100 µM [16]: 82.7%

CCCCN1C[C@H](O)[C@@H](O)[C@H](O)[C@H]1CO [MMV1782098]
activity at 25 µM [9]: 95.7%
activity at 25 µM [10]: 96.4%
activity at 25 µM [11]: 111%
activity at 25 µM [12]: 79.8%
activity at 100 µM [13]: 68%
activity at 100 µM [14]: 94.4%
activity at 100 µM [15]: 27.4%
activity at 100 µM [16]: 82.2%

COc1cc(C(C)(C)CCCC(C)C)cc(OC)c1OC [MMV1782102]
activity at 25 µM [1]: 78.4%
activity at 25 µM [2]: 88.5%
activity at 25 µM [3]: 83%
activity at 25 µM [4]: 63.5%
activity at 100 µM [5]: 90.3%
activity at 100 µM [6]: 83.9%
activity at 100 µM [7]: 86%
activity at 100 µM [8]: 75.5%

COCCn1cnc2c(=O)[nH]c(Nc3ccccc3)nc21 [MMV1782103]
activity at 25 µM [9]: 86.8%
activity at 25 µM [10]: 90%
activity at 25 µM [11]: 97.7%
activity at 25 µM [12]: 72.6%
activity at 100 µM [13]: 75.1%
activity at 100 µM [14]: 87.4%
activity at 100 µM [15]: 60.4%
activity at 100 µM [16]: 77.5%

NC(=O)c1nccn([C@@H]2O[C@H](CO)[C@@H](O)[C@H]2O)c1=O [MMV1782104]
activity at 25 µM [1]: 99.8%
activity at 25 µM [2]: 102%
activity at 25 µM [3]: 107%
activity at 25 µM [4]: 90.3%
activity at 100 µM [5]: 97.1%
activity at 100 µM [6]: 86.1%
activity at 100 µM [7]: 97.7%
activity at 100 µM [8]: 63.4%
